The results in this text go back to US12247015B2, “3-amino-4H-benzo[e][1,2,4]thiadiazine 1,1-dioxide derivatives as inhibitors of MRGX2” (Solent Therapeutics, LLC, priority 2019, dated 2025).

SMILES strings stand for the structures.

Chain of hMRGX2 (CHO-K1 cells overexpressing MRGX2) (Q96LB1 whole entry): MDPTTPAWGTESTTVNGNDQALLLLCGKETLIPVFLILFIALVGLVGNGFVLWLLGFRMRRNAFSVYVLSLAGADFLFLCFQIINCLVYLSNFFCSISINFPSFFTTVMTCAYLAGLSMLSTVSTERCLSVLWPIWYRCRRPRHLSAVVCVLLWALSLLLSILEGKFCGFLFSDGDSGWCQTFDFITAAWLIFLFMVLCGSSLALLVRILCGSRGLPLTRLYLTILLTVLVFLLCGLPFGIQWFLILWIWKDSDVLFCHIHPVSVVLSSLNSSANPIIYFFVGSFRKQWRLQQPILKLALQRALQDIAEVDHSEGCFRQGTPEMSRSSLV

In this test the target is hMRGX2 (CHO-K1 cells overexpressing MRGX2) (Homo sapiens (Human), UniProt Q96LB1). The experiment in a line: In vitro inhibition (EC50) of intracellular calcium flux, FLIPR Tetra, substance P stimulation. The format is cell-based. Particulars: stimulated with MRGX2 ligand substance P, FLIPR Calcium 5, read-out: hMRGX2 Cellular Potency (pEC50) (converted). On the procedure:
In Vitro Inhibition (EC50) of Intracellular Calcium Flux
The release of intracellular calcium following stimulation of cells with substance P in the presence or absence of inhibitor compounds was measured using the FLIPR Tetra® system. CHO-K1 cells overexpressing MRGX2 were seeded into 384-well plates (Black clear bottom, TC-treated, Fisher #07-200-655) and incubated overnight to allow for cell attachment. Media was removed, and 1× loading buffer (FLIPR® Calcium 5 assay solution, Molecular Devices, per manufacturer specifications) was added. The plates were incubated at 37° C. for 30 minutes. Test compounds were added to cells (11-point dose response, 10 µM maximum concentration) and fluorescence measured (120 seconds, in real time) using the FLIPR Tetra® system. Immediately following, MRGX2 ligand substance P was added at a final concentration of 1 µM and fluorescence measured (120 seconds, in real time) using the FLIPR Tetra® system. The data for the examples are reported as pEC50.
Take `O=S1(=O)N=C(NCC(F)F)Nc2c(-c3ccccc3Cl)cccc21` [Example 44, 5-(2-chlorophenyl)-3-((2,2-difluoroethyl)amino)-4H-benzo[e][1,2,4]thiadiazine 1,1-dioxide]: the EC50 is 186 nM.
To `O=S1(=O)N=C(NCCF)Nc2c(-c3ccccc3Cl)cccc21` [Example 45, 5-(2-chlorophenyl)-3-((2-fluoroethyl)amino)-4H-benzo[e][1,2,4]thiadiazine 1,1-dioxide] belongs 305 nM.
Consider `Cn1cccc(CNC2=NS(=O)(=O)c3cccc(-c4cccc(F)c4Cl)c3N2)c1=O` [Example 46, 3-(((5-(2-chloro-3-fluorophenyl)-1,1-dioxido-4H-benzo[e][1,2,4]thiadiazin-3-yl)amino)methyl)-1-methylpyridin-2(1H)-one], for which the EC50 is 87.9 nM.
To `CO[C@H](C)CNC1=NS(=O)(=O)c2cccc(-c3cccc(F)c3Cl)c2N1` [Example 47, (R)-5-(2-chloro-3-fluorophenyl)-3-((2-methoxypropyl)amino)-4H-benzo[e][1,2,4]thiadiazine 1,1-dioxide] belongs 93.3 nM; to `O=S1(=O)N=C(NCc2ncco2)Nc2c(-c3ccnc(F)c3Cl)cccc21` [Example 48, 5-(3-chloro-2-fluoropyridin-4-yl)-3-((oxazol-2-ylmethyl)amino)-4H-benzo[e][1,2,4]thiadiazine 1,1-dioxide], 36 nM.
Take `O=S1(=O)N=C(NCc2nccs2)Nc2c(-c3ccnc(F)c3Cl)cccc21` [Example 49, 5-(3-chloro-2-fluoropyridin-4-yl)-3-((thiazol-2-ylmethyl)amino)-4H-benzo[e][1,2,4]thiadiazine 1,1-dioxide]: the EC50 was 24.2 nM.
To `O=S1(=O)N=C(NCC2CC2)Nc2c(-c3ccnc(F)c3Cl)cccc21` [Example 50, 5-(3-chloro-2-fluoropyridin-4-yl)-3-((cyclopropylmethyl)amino)-4H-benzo[e][1,2,4]thiadiazine 1,1-dioxide] belongs 70.8 nM; to `O=S1(=O)N=C(NCc2ncccc2F)Nc2c(-c3ccnc(F)c3Cl)cccc21` [Example 51, 5-(3-chloro-2-fluoropyridin-4-yl)-3-(((3-fluoropyridin-2-yl)methyl)amino)-4H-benzo[e][1,2,4]thiadiazine 1,1-dioxide], 19 nM.
On to `CCNC1=NS(=O)(=O)c2cccc(-c3ccnc(F)c3Cl)c2N1` [Example 52, 5-(3-chloro-2-fluoropyridin-4-yl)-3-(ethylamino)-4H-benzo[e][1,2,4]thiadiazine 1,1-dioxide], for which the EC50 is 131 nM.
With `O=S1(=O)N=C(NCC(F)F)Nc2c(-c3ccnc(F)c3Cl)cccc21` [Example 53, 5-(3-chloro-2-fluoropyridin-4-yl)-3-((2,2-difluoroethyl)amino)-4H-benzo[e][1,2,4]thiadiazine 1,1-dioxide], the EC50 was 575 nM.
To `O=S1(=O)N=C(NCc2ccc(F)cc2)Nc2c(-c3ccnc(F)c3Cl)cccc21` [Example 54, 5-(3-chloro-2-fluoropyridin-4-yl)-3-((4-fluorobenzyl)amino)-4H-benzo[e][1,2,4]thiadiazine 1,1-dioxide] belongs 13.2 nM.
On to `N#Cc1cnc(CNC2=NS(=O)(=O)c3cccc(-c4ccnc(F)c4Cl)c3N2)s1` [Example 55, 2-(((5-(3-chloro-2-fluoropyridin-4-yl)-1,1-dioxido-4H-benzo[e][1,2,4]thiadiazin-3-yl)amino)methyl)thiazole-5-carbonitrile], for which the EC50 is 136 nM.
To `CNC1=NS(=O)(=O)c2cccc(-c3ccnc(F)c3Cl)c2N1` [Example 56, 5-(3-chloro-2-fluoropyridin-4-yl)-3-(methylamino)-4H-benzo[e][1,2,4]thiadiazine 1,1-dioxide] belongs 282 nM.
To `CN1CCOC(CNC2=NS(=O)(=O)c3cccc(-c4cccc(F)c4Cl)c3N2)C1` (stereo not drawn) [Example 57, 5-(2-chloro-3-fluorophenyl)-3-(((4-methylmorpholin-2-yl)methyl)amino)-4H-benzo[e][1,2,4]thiadiazine 1,1-dioxide] belongs 173 nM; to `CCOC(C)CNC1=NS(=O)(=O)c2cccc(-c3cccc(F)c3Cl)c2N1` (stereo not drawn) [Example 58, 5-(2-chloro-3-fluorophenyl)-3-((2-ethoxypropyl)amino)-4H-benzo[e][1,2,4]thiadiazine 1,1-dioxide], 179 nM.
Take `Cc1nn(C)cc1-c1cccc2c1NC(NCc1ccc(Cl)cn1)=NS2(=O)=O` [Example 59, 3-(((5-chloropyridin-2-yl)methyl)amino)-5-(1,3-dimethyl-1H-pyrazol-4-yl)-4H-benzo[e][1,2,4]thiadiazine 1,1-dioxide]: the EC50 was 248 nM.
To `COC(C)CNC1=NS(=O)(=O)c2cccc(-c3cn(C)nc3C)c2N1` (stereo not drawn) [Example 60, 5-(1,3-dimethyl-1H-pyrazol-4-yl)-3-((2-methoxypropyl)amino)-4H-benzo[e][1,2,4]thiadiazine 1,1-dioxide] belongs 865 nM; to `Cc1nn(C)cc1-c1cccc2c1NC(NCC1CCC1)=NS2(=O)=O` [Example 61, 3-((cyclobutylmethyl)amino)-5-(1,3-dimethyl-1H-pyrazol-4-yl)-4H-benzo[e][1,2,4]thiadiazine 1,1-dioxide], 430 nM; to `CN(C)C(=O)CNC1=NS(=O)(=O)c2cccc(-c3cccc(F)c3Cl)c2N1` [Example 62, 2-((5-(2-chloro-3-fluorophenyl)-1,1-dioxido-4H-benzol[e][1,2,4]thiadiazin-3-yl)amino)-N,N-dimethylacetamide], 279 nM.
With `COCCNC1=NS(=O)(=O)c2cccc(-c3ccccc3C3CC3)c2N1` [Example 63, 5-(2-cyclopropylphenyl)-3-((2-methoxyethyl)amino)-4H-benzo[e][1,2,4]thiadiazine 1,1-dioxide], the EC50 was 953 nM.
Turning to `O=S1(=O)N=C(NCc2ccsn2)Nc2c(-c3cccc(F)c3Cl)cccc21` [Example 64, 5-(2-chloro-3-fluorophenyl)-3-((isothiazol-3-ylmethyl)amino)-4H-benzo[e][1,2,4]thiadiazine 1,1-dioxide], the EC50 is 15.6 nM.
To `O=S1(=O)N=C(NCCc2ccccn2)Nc2c(-c3cccc(F)c3Cl)cccc21` [Example 67, 5-(2-chloro-3-fluorophenyl)-3-((2-(pyridin-2-yl)ethyl)amino)-4H-benzo[e][1,2,4]thiadiazine 1,1-dioxide] belongs 36.6 nM.
To `O=S1(=O)N=C(NCCc2ccncc2)Nc2c(-c3cccc(F)c3Cl)cccc21` [Example 68, 5-(2-chloro-3-fluorophenyl)-3-((2-(pyridin-4-yl)ethyl)amino)-4H-benzo[e][1,2,4]thiadiazine 1,1-dioxide] belongs 305 nM.
Take `O=S1(=O)N=C(NCCc2cccnc2)Nc2c(-c3cccc(F)c3Cl)cccc21` [Example 69, 5-(2-chloro-3-fluorophenyl)-3-((2-(pyridin-3-yl)ethyl)amino)-4H-benzo[e][1,2,4]thiadiazine 1,1-dioxide]: the EC50 is 601 nM.
To `COc1cccc(CCNC2=NS(=O)(=O)c3cccc(-c4cccc(F)c4Cl)c3N2)c1` [Example 70, 5-(2-chloro-3-fluorophenyl)-3-((3-methoxyphenethyl)amino)-4H-benzo[e][1,2,4]thiadiazine 1,1-dioxide] belongs 57.9 nM.
To `COc1ccccc1CCNC1=NS(=O)(=O)c2cccc(-c3cccc(F)c3Cl)c2N1` [Example 71, 5-(2-chloro-3-fluorophenyl)-3-((2-methoxyphenethyl)amino)-4H-benzo[e][1,2,4]thiadiazine 1,1-dioxide] belongs 82.8 nM.
To `COc1ccc(CCNC2=NS(=O)(=O)c3cccc(-c4cccc(F)c4Cl)c3N2)cc1` [Example 72, 5-(2-chloro-3-fluorophenyl)-3-((4-methoxyphenethyl)amino)-4H-benzo[e][1,2,4]thiadiazine 1,1-dioxide] belongs 39.8 nM; to `O=S1(=O)N=C(NCCC2CCCO2)Nc2c(-c3cccc(F)c3Cl)cccc21` (stereo not drawn) [Example 73, 5-(2-chloro-3-fluorophenyl)-3-((2-(tetrahydrofuran-2-yl)ethyl)amino)-4H-benzo[e][1,2,4]thiadiazine 1,1-dioxide], 139 nM.
Consider `Cc1cc(NC2=NS(=O)(=O)c3cccc(-c4cccc(F)c4Cl)c3N2)nn1C(C)C` [Example 74, 5-(2-chloro-3-fluorophenyl)-3-((1-isopropyl-5-methyl-1H-pyrazol-3-yl)amino)-4H-benzo[e][1,2,4]thiadiazine 1,1-dioxide], for which the EC50 was 746 nM.
Consider `O=S1(=O)N=C(NCc2ccc(F)cc2)Nc2c(-c3cc(F)cc(F)c3)cccc21` [Example 75, 5-(3,5-difluorophenyl)-3-((4-fluorobenzyl)amino)-4H-benzo[e][1,2,4]thiadiazine 1,1-dioxide], for which the EC50 is 34.6 nM.
In the case of `O=S1(=O)N=C(NCc2cc(F)ccc2F)Nc2c(-c3cc(F)cc(F)c3)cccc21` [Example 76, 3-((2,5-difluorobenzyl)amino)-5-(3,5-difluorophenyl)-4H-benzo[e][1,2,4]thiadiazine 1,1-dioxide], the EC50 is 34.8 nM.
For `O=S1(=O)N=C(NCc2ccccc2F)Nc2c(-c3cc(F)cc(F)c3)cccc21` [Example 77, 5-(3,5-difluorophenyl)-3-((2-fluorobenzyl)amino)-4H-benzo[e][1,2,4]thiadiazine 1,1-dioxide], the EC50 is 34.9 nM.
Take `O=S1(=O)N=C(NCc2c(F)cccc2F)Nc2c(-c3cc(F)cc(F)c3)cccc21` [Example 78, 3-((2,6-difluorobenzyl)amino)-5-(3,5-difluorophenyl)-4H-benzo[e][1,2,4]thiadiazine 1,1-dioxide]: the EC50 is 224 nM.
